Earlier results in US6797472B1, “Variation in drug response related to polymorphisms in β2-adrenergic receptor” (Genaissance Pharmaceuticals, Inc., priority 1999, dated 2004).

Columns and labels:
Ile164 receptor [1] = target: T1, Ile164 receptor (Homo sapiens, UniProt P07550, T164I); conditions: competition binding with [125I]cyp in the presence of GTP; reference 4
Ile164 receptor [2] = target: T1, Ile164 receptor; conditions: previous studies

binding affinity at Ile164 receptor (Ile164 receptor [1])	SMILES	stimulation of adenylyl cyclase by Ile164 receptor compared to Thr164 receptor (Ile164 receptor [2])
normal binding affinities	NCCc1ccc(O)c(O)c1 [dopamine]	does not show decreased stimulation
small decrease in binding affinity	NC[C@H](O)c1ccc(O)c(O)c1 [norepinephrine]	–

SMILES	binding affinity at Ile164 receptor (Ile164 receptor [1])	stimulation of adenylyl cyclase by Ile164 receptor compared to Thr164 receptor (Ile164 receptor [2])
CNC[C@H](O)c1ccc(O)c(O)c1 [epinephrine]	small decrease in binding affinity	decreased stimulation
